Columns and labels:
Assay type in all cases: in vivo
[1] = test system: Corn (cultivar: Hughes 5813); assay: Test Example 2: corn seed treatment, amount of harvested grains; details: grown 226 days
Procedure: Corn (cultivar: Hughes 5813) seeds were separately treated with 25 μg or 125 μg of compound (1b) for each seed. The amount of the compound required for the treatment was determined by calculation assuming 4,000 grains per kg of seeds. The seeds were coated using seed treatment machine HEGE11(produced by Hans-Ulrich Hege). All the seed treatments included Maxim XL (0.167 ounces/100 pounds), Thiram 42S (2.5 ounces/pound), and Cruiser (containing 0.25 mg/seed of thiamethoxam) and CF-Clear polymer at a concentration of 0.5 ounces/pound. The treated seeds were sown and grown for 226 days, and the corn plants were harvested to obtain grains. […] During the testing, no diseases were observed that affected the yield in the present compound-treated group and the non-treated group.

[2] = test system: oilseed rape (Brasicca napus); assay: Test Example 11: oilseed rape field application, yield of the seeds; details: flowable formulation, 250 g per hectare at day 240 (BBCH 63); evaluated day 334; non-treated 4.25 tons/hectare
Excerpt: Seeds of oilseed rape (Brasicca napus) were sown at 5.5 kg seeds per hectare and grown. At day 240 after the sowing, at growth stage 63, according to the Biologische Bundesanstalt, Bundessortenamt and CHemical industry (BBCH) scale, the flowable formulation prepared as described in Formulation Example 2 containing compound (1b) was applied in an amount of 250 g per hectare. A group for the treatment measured 2 m×12 m. This group was the present compound-treated group. A group treated with the formulation without compound (1b) was used as the non-treated group, in which plants were cultivated in the same manner as in the treated group.
At day 334 after the sowing, the yield of the seeds was evaluated. As a result, the yield calculated presuming 9% seed water content was 4.55 tons/hectare in the present compound-treated group, while it was 4.25 tons/hectare in the non-treated group. During the testing, no diseases were observed that affected the yield either in the present compound-treated or non-treated group.

[3] = test system: Corn (cultivar: DeKalb 61-69); assay: Test Example 4: field corn foliage spraying, percentage of green leaves; details: assessed 143 days after sowing (R6), non-treated 23.8%
Excerpt: Corn seeds (cultivar: DeKalb 61-69) were sown at 33,684 seeds per acre and grown. Each plot in the field for treatment measured 10 feet in width and 15.5 feet in length. The treatments were arranged using the Randomized Complete Block Design method with eight replications for each treatment. Groups treated with the formulation without compound (1b) were used as the non-treated groups, in which corn was cultivated in the same manner as in the present compound-treated groups. The flowable formulation prepared as described in Formulation Example 2 was applied by foliage spraying 111 days after the sowing, at developmental stage R3 of maize. The percentage of green leaves among the leaves upper to the lowest ear of corn was determined for each formulation-treated group 143 days after the sowing, at developmental stage R6 of maize. As a result, the percentages were 41.3% and 45.6% on average, respectively, in the groups treated with 100 g and 300 g per hectare of compound (1b), while the percentage was 23.8% on average in the non-treated groups.

[4] = test system: corn plants (cultivar: Koshu); assay: Test Example 9: corn seed soaking, low-temperature stress, fresh weight of above-ground part; details: for Average fresh weight of above-ground part: low-temperature stress 3±2° C. 7 days, non-treated 1.18 g
Procedure: Each of the 1,000-fold concentrated dimethylsulfoxide (DMSO) solutions of compound (1b) was 1,000-fold diluted with water to prepare a soultion of compound (1b) at the test concentration. The solution was dispensed in 30 ml aliquots into […] Petri dishes, in which seeds of corn plants (cultivar: Koshu) were soaked and incubated for 16 hours at 24° C. in the dark. The corn seeds were sown in the culture soil (AISAI) in the plastic pots (55 mm in diameter×58 mm in height), and corn seedlings were grown for 4 days under the following conditions: temperature, 27° C.; illuminance, about 5,000 lux; day length, 16 hours. As a control, a 0.1% aqueous DMSO solution was prepared, and seeds were soaked in this solution and then sown and grown into seedlings in the same way as described above. This group was used as the non-treated group. The corn seedlings were placed in a phytotron under the following conditions in order to expose the plants to low-temperature stress for 7 days. • Conditions: “temperature, 3±2° C.; day length, 16 hours; • illuminance, about 5,000 lux; humidity, 35 to 80%” The plants were then grown for another 7 days under the following conditions: temperature, 27° C.; humidity, 50 to 75%, illuminance, about 5,000 lux; day length, 16 hours. Then the fresh weight of the above-ground part of the plants was measured. The experiment was performed in four replications for each individual plant for each treatment condition and the average weight per individual was calculated.

[5] = test system: corn plants (cultivar: Koshu); assay: Test Example 3: corn seed soaking, fresh weight of above-ground part
Procedure: Each of the 1,000-fold concentrated dimethylsulfoxide (DMSO) solutions of compound (1b) was 1,000-fold diluted with water to prepare a soultion of compound (1b) at the test concentration. The solution was dispensed in 30 ml aliquots into […] Petri dishes, in which seeds of corn plants (cultivar: Koshu) were soaked and incubated for 16 hours at 24° C. in the dark. The corn seeds (cultivar: Koshu) were sown in the culture soil (AISAI) in the plastic pots (55 mm in diameter×58 mm in height), and corn seedlings were grown for 18 days under the following, conditions: temperature, 27° C.; illuminance, about 5,000 lux; day length, 16 hours. As a control, a 0.1% aqueous DMSO solution was prepared, and seeds were soaked in this solution and then sown and grown into seedlings in the same way as described above. This group was used as the non-treated group. The fresh weight of the above-ground part of the corn seedlings obtained above was measured. The experiment was performed in four replications for each individual plant at each treatment concentration and the average weight per individual was calculated.

[6] = test system: oilseed rape (Brasicca napus); assay: Test Example 5: oilseed rape field application, percentage of green pods; details: flowable formulation, 250 g per hectare at day 253 (BBCH 65); assessed day 323 (BBCH 85); non-treated 12.75%
Excerpt: Seeds of oilseed rape (Brasicca napus) were sown and grown. At day 253 after the sowing, at growth stage 65, according to the Biologische Bundesanstalt, Bundessortenamt and CHemical industry (BBCH) scale, the flowable formulation prepared as described in Formulation Example 2 containing compound (1b) was applied in an amount of 250 g per hectare. A plot for the treatment measured 6 m×10 m. This plot was the present compound-treated group. A plot treated with the formulation without compound (1b) was used as the non-treated group, in which plants were cultivated in the same manner as in the present compound-treated group.
At day 323 after the sowing, when almost all the plants entered growth stage 85, according to the BBCH scale, the percentage of pods remaining green among the pods of the plants was examined and determined in both the present compound-treated and non-treated groups.

## CNC(=O)C(OC)c1ccccc1COc1cc(C)ccc1C (racemic) [Compound (1b), N-methyl-2-[2-(2,5-dimethylphenoxy)methyl]phenyl-2-methoxyacetamide]
[1]; seeds treated with 25 μg per seed
  increase in amount of the harvested grains as compared with the non-treated group: 11%
[1]; seeds treated with 125 μg per seed
  increase in amount of the harvested grains as compared with the non-treated group: 9%
[2]
  yield of the seeds calculated presuming 9% seed water content: 4.55 tons/hectare
[3]; foliage spraying 100 g per hectare at 111 days (R3)
  percentage of green leaves among the leaves upper to the lowest ear (average): 41.3%
[3]; foliage spraying 300 g per hectare at 111 days (R3)
  percentage of green leaves among the leaves upper to the lowest ear (average): 45.6%
[4]; plants exposed to low-temperature stress, concentration range of 3 ppm to 30 ppm
  fresh weight of the above-ground part as compared with the non-treated group: increased
[4]; seed soaking 3 ppm
  Average fresh weight of above-ground part: 1.49 g
[4]; seed soaking 10 ppm
  Average fresh weight of above-ground part: 2.25 g
[4]; seed soaking 30 ppm
  Average fresh weight of above-ground part: 1.35 g
[5]; concentration of 3 ppm
  fresh weight of the above-ground part as compared with the non-treated group: increased
[5]; seed soaking 3 ppm, 16 hours, grown 18 days, non-treated 4.47 g
  Average fresh weight of above-ground part: 6.60 g
[6]
  percentage of green pods: 22.25%

From patent US20130324413A1, “METHOD FOR PROMOTING PLANT GROWTH” (SUMITOMO CHEMICAL COMPANY, LIMITED, priority 2011, published 2013)
